In ChEMBL document CHEMBL1201862, “PubChem BioAssay data set” (2004):
Activity calls are given as the source filed them.

Experiments:
[1] = M. tuberculosis H37Rv growth inhibitors, H37Rv strain (AID 1626); format: functional
[2] = target: Protein-tyrosine kinase 2-beta (Homo sapiens, UniProt Q14289);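 further: potency of inhibitors of PYK2 kinase phosphorylation of poly-GT substrate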
[3] = target: E3 ubiquitin-protein ligase Mdm2 (Homo sapiens, UniProt Q00987); experiment: MDM2-luc reporter signal enhancers, multi-concentration potency testing, MDM2 ubiquitin-protein ligase inhibitor program, whole-cell format, luminescence detection, 384-well microplate (AID 1394); format: functional;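 further: MDM2 E3 inhibitors raise luminescence so EC50 is for signal enhancement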
[4] = target: T1, Microphthalmia-associated transcription factor (Homo sapiens, UniProt O75030); experiment: reducers of TRPM1 reporter luminescence, concentration series – cell-based, SK-MEL-5, cherry-picked, set 3, MITF inhibitor project, dose response (AID 493073); format: functional;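 further: SK-MEL-5 melanoma cells with luciferase driven by the MITF target TRPM1 promoter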
T1 sequence (O75030 whole entry): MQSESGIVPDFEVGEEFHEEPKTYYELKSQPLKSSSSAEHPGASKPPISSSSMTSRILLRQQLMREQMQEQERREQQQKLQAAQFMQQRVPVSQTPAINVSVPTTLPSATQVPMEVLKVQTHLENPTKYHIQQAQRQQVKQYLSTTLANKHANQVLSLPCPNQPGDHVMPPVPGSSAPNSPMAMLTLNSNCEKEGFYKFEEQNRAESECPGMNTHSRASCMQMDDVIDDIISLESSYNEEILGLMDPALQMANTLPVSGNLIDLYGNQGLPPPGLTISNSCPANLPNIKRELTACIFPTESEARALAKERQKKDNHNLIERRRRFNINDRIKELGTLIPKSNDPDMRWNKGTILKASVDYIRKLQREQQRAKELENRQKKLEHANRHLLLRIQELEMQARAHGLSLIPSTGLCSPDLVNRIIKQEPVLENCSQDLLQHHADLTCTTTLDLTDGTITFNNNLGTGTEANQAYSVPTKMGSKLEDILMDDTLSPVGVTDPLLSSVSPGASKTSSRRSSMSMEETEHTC

[5] = target: T2, Polyadenylate-binding protein 1 (Homo sapiens, UniProt P11940); experiment: MLLE binding blockers, Cy5 peptide tracer – biochemical, fluorescence polarization, Cy5-PAM2 peptide, secondary, miRNA deadenylation inhibitor project, dose response (AID 602260); format: functional; conditions: read-out: IC50_Mean
[6] = target: T2, Polyadenylate-binding protein 1; experiment: MLLE domain peptide-binding blockers, IC50 – biochemical, fluorescence polarization, FITC-PAM2 peptide, dose response (AID 602259); format: functional; conditions: read-out: IC50_Mean
[7] = Trypanosoma cruzi growth suppression in host cells – NIH3T3 host cells, beta-gal luminescence, confirmation (AID 2044); format: functional, cell-based;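 further: intracellular parasites grown in NIH/3T3 mouse fibroblasts as host cells; luminescent beta-galactosidase reporter signal from transgenic T. cruzi replicating inside host cells; inhibitors lower the luminescence signal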
[8] = NIH3T3 cell viability loss – ATP luminescence, mouse fibroblasts, counter-screen, dose response (AID 2010); format: functional, cell-based;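 further: cells exposed to compound for about 90 hours before reading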
[9] = cells
[10] = target: T3, Estrogen receptor (Homo sapiens, UniProt P03372);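 further: potency for inhibiting coactivator peptide recruitment to the receptor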
T3 sequence (P03372 whole entry): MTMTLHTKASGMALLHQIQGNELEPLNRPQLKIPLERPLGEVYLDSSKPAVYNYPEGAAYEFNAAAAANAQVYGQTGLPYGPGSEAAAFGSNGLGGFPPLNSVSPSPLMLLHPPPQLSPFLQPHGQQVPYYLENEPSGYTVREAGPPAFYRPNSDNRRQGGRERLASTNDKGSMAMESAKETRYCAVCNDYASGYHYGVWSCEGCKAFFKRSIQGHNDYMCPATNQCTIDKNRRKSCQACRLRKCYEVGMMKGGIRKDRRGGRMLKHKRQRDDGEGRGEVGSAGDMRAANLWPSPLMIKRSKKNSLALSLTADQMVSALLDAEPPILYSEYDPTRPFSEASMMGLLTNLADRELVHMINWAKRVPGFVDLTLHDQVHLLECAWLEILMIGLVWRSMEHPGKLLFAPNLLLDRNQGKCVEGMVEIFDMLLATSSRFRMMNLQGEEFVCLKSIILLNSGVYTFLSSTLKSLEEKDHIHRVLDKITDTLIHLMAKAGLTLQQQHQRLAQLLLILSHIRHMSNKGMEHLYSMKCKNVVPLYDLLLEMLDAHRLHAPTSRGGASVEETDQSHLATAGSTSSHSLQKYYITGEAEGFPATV

[11] = target: Protein Tat (Human immunodeficiency virus type 1 group M subtype B (isolate HXB2)(HIV-1), UniProt P04608); format: functional;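 further: tat binding to TAR RNA read out by fluorescence polarization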
[12] = viability of uninfected HEp-2 cells – cell-based, HTS, cytotoxicity control for RSV inhibitor project, dose response (AID 2410); format: functional; conditions: human respiratory syncytial virus
[13] = target: Bifunctional protein GlmU (Mycobacterium tuberculosis, UniProt P9WMN3); experiment: Inhibitors of Mycobacterial Glucosamine-1-phosphate acetyl transferase (GlmU). Secondary screen.; parameters: species or system Mycobacterium tuberculosis H37Rv
[14] = HPDE-C7 pancreatic duct cell viability loss – fluorescence, HTS (AID 430); format: functional, cell-based; conditions: Homo sapiens
[15] = viability loss of HPDE-C7K cells – cell-based, fluorescence, HTS, primary screen (AID 431); format: functional; conditions: Homo sapiens
[16] = HIV-1 Vif–A3G interaction blockers – biochemical, TR-FRET, GST-Vif 1-94, biotin-A3G peptide, dose response retest, primary screen (AID 1117319); format: functional;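 further: TR-FRET signal of purified GST-Vif binding a biotinylated A3G peptide; inhibitors lower the FRET signal by blocking Vif and A3G binding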
[17] = target: Cytochrome P450 2D6 (Homo sapiens, UniProt P10635);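 further: CYP2D6 member of a cytochrome P450 panel assay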
[18] = target: Cytochrome P450 3A4 (Homo sapiens, UniProt P08684);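 further: CYP3A4 tested as one member of a cytochrome P450 panel screen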
Sequence of Cytochrome P450 3A4 (P08684 whole entry): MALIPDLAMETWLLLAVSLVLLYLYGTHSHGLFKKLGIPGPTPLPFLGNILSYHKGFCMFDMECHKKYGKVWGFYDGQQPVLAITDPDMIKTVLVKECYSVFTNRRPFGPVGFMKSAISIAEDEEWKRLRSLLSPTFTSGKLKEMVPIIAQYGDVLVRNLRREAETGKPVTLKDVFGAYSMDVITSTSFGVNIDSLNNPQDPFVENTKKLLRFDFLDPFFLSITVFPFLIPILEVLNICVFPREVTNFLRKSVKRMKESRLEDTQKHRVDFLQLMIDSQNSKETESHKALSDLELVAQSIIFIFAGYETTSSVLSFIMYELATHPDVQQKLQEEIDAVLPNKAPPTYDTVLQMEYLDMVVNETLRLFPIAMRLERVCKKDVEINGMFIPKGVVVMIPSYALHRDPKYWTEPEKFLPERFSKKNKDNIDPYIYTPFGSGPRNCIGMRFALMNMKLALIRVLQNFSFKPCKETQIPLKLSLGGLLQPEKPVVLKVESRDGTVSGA

T2 sequence (P11940 whole entry, the tested form may be a part): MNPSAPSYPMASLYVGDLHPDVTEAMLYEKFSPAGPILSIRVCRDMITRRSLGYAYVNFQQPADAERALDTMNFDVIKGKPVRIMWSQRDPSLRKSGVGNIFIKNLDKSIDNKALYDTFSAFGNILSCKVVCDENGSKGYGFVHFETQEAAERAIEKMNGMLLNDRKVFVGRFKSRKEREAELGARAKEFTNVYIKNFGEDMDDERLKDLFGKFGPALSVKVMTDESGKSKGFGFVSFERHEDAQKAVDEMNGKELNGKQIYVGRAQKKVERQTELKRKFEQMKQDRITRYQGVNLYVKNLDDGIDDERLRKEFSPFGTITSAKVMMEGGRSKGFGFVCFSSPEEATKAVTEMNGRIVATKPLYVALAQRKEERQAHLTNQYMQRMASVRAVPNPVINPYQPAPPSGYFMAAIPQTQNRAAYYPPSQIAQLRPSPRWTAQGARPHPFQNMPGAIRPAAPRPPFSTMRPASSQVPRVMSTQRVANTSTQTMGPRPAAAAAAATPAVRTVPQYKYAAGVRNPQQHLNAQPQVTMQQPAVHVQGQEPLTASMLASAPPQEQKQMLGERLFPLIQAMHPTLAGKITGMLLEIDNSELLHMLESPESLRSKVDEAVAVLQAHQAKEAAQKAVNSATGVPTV
Sequence of Protein Tat (P04608 whole entry): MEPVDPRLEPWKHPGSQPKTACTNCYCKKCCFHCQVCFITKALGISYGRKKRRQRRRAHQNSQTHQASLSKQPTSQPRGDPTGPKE
Sequence of Bifunctional protein GlmU (P9WMN3 whole entry): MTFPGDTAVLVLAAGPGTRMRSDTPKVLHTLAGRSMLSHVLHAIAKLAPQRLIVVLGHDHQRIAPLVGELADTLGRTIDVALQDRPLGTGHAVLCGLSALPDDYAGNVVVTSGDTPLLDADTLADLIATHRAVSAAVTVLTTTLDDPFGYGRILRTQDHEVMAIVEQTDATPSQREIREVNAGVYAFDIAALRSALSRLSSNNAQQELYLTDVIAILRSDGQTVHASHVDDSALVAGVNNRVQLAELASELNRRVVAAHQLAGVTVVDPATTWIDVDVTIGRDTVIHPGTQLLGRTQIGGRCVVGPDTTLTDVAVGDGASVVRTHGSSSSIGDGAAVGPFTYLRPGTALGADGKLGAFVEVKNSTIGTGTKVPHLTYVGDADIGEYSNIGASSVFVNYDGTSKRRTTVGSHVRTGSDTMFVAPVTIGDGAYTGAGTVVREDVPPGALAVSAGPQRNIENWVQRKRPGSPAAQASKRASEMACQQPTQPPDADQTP
Sequence of E3 ubiquitin-protein ligase Mdm2 (Q00987 whole entry): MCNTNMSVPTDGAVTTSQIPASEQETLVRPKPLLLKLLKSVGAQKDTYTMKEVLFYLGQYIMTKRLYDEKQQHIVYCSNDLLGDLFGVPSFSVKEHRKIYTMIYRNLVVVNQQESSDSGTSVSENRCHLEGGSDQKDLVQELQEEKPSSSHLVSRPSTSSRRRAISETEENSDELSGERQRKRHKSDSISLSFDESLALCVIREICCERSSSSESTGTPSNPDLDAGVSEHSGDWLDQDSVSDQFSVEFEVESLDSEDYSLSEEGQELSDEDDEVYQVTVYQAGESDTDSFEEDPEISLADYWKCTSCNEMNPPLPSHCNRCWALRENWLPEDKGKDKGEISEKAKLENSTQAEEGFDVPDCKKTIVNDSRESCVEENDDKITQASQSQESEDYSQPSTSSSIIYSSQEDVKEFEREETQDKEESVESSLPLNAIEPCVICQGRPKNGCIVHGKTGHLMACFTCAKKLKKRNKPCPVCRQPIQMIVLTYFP
Sequence of Protein-tyrosine kinase 2-beta (Q14289 whole entry): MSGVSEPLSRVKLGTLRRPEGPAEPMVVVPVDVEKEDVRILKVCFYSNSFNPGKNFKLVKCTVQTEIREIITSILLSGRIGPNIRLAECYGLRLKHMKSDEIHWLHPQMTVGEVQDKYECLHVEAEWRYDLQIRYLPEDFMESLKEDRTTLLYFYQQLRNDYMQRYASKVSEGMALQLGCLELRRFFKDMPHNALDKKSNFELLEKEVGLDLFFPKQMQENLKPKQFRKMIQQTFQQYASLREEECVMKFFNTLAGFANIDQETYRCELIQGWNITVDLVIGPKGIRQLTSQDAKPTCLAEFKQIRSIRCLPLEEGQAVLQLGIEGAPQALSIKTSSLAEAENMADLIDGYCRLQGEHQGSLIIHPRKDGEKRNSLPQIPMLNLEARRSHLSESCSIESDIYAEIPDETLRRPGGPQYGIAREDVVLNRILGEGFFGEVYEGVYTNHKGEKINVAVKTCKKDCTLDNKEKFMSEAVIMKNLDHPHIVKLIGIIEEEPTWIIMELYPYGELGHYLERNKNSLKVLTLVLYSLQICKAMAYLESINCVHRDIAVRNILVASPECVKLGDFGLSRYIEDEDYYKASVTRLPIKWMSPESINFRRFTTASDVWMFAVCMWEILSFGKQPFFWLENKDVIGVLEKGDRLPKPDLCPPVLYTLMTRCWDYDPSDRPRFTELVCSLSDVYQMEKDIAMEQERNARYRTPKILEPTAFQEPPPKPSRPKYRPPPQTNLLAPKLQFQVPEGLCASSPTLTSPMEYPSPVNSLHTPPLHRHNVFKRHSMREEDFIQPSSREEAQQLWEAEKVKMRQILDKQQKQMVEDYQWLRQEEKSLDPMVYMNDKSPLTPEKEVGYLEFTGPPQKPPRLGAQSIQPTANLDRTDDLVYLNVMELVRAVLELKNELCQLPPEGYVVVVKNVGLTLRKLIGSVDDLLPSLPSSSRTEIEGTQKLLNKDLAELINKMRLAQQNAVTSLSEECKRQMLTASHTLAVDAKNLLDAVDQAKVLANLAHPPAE
Sequence of Cytochrome P450 2D6 (P10635 whole entry): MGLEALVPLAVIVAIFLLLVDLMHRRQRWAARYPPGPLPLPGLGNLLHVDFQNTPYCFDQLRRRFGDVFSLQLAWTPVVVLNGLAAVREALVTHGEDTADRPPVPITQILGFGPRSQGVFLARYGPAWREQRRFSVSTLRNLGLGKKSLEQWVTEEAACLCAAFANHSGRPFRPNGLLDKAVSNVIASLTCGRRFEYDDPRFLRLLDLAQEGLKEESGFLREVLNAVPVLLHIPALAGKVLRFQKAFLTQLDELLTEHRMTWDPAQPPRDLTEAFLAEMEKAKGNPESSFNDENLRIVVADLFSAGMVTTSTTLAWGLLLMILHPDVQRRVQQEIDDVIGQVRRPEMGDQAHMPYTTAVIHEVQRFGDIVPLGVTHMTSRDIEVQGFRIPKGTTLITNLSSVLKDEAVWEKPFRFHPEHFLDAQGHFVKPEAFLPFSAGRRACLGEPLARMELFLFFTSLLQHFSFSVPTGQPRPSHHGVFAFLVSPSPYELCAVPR

Structure (SMILES): O=Cc1ccc2noc(-c3ccc(F)cc3)c2c1
- IC50 [1]: > 100 µM (active)
- IC50 [2]: > 69.5 µM (not active)

Structure (SMILES): COC(=O)CSC1=C(C#N)C(=O)NC(c2ccccc2)S1 (stereo unspecified)
- EC50 [3]: 2.15 µM (active)
- AC50 [4]: 7.06 µM (active)
- IC50 [5]: > 66 µM (inactive)
- IC50 [6]: > 66 µM (inactive)

Structure (SMILES): CCc1sc(C(=O)NC2CCN(C)CC2)cc1Br
- EC50 [7]: < 0.1 µM (active)
- EC50 [8]: > 60 µM (not active)
- EC50 [9]: 0.026 µM (active)

Structure (SMILES): CN1CCN(c2nc(-c3ccc(Br)cc3)nnc2-c2ccccc2)CC1
- EC50 [7]: < 0.1 µM (active)
- EC50 [8]: > 60 µM (inconclusive)
- EC50 [9]: 0.008 µM (active)

Structure (SMILES): CC(=O)c1cccc(NC(=O)CN2C(=O)NC3(CCCCCCC3)C2=O)c1
- IC50 [10]: 48.2 µM (not active)
- IC50 [11]: > 100 µM (active)

Structure (SMILES): CCCSc1nnc(NC(=O)c2sc3nc(-c4cccs4)ccc3c2N)s1
- CC50 [12]: 46 µM (active)
- IC50 [13]: 167 µM (active)

Structure (SMILES): COC(=O)C(CC(=O)c1ccc(Br)cc1)n1ccnc1 (stereo unspecified)
- EC50 [14]: 15.5 µM (active)
- EC50 [15]: 14.4 µM (active)

Structure (SMILES): O=C(N/N=C/c1ccc(F)cc1)c1ccc(Br)cc1
- IC50 [16]: > 50 µM (active)
- AC50 [17]: 3.55 µM (inconclusive)
- AC50 [18]: 22.4 µM (inconclusive)
